Laboratory results published in ChEMBL document CHEMBL1150231, “New sesquiterpene carbonimidic dichlorides and related compounds from the sponge Stylotella aurantium” (J Nat Prod, 2001).

Tests used:
Format in all cases: functional, cell-based
[1] = test system: P388; experiment: Cytotoxicity against mouse P388 cells
[2] = test system: A549; experiment: Cytotoxicity against human A549 cells
[3] = test system: HT-29; experiment: Cytotoxicity against human HT-29 cells
[4] = test system: SK-MEL-28; experiment: Cytotoxicity against human SK-MEL-28 cells

Measured: IC50

CC1(C)[C@@H](Cl)[C@@H](O)C[C@]2(C)C/C(=C/C=O)CC[C@@H]12
0.1 µg/mL: all assays above

CC1(C)[C@@H](Cl)[C@@H](O)C[C@]2(C)C/C(=C\C=O)CC[C@@H]12
0.1 µg/mL: all assays above

C=C(CC[C@@H]1C(=C)CC[C@H](Cl)C1(C)C)C(Cl)CN=C(Cl)Cl (some centres not stated)
0.1 µg/mL: all assays above
